How the values were obtained:
[1] = molecular target: T1, KMO mouse enzyme (Mus musculus, UniProt Q91WN4); experiment: Mouse KMO enzyme assay: L-kynurenine hydroxylation to 3OH-KYN by LC/MS; format: biochemical; settings: compound at 10 μM; KMO from mouse liver mitochondria; read-out: INH.Mouse @ 10 μM
T1 construct: KMO enzyme prepared at Evotec from mouse liver (4-6 weeks old) via mitochondria isolation; from tissue; host or cells: mouse liver (4-6 weeks old), mitochondria isolation at Evotec
Method: Product is quantified by multiple reaction monitoring (MRM method).
• Compound: Stock concentrations: 10 mM in 100% DMSO • Enzyme: KMO enzyme prepared at Evotec from mouse liver (4-6 weeks old) via mitochondria isolation as described in the literature • Substrate: L-Kynurenine (Sigma: Cat #K3750, stock concentration:
10 mM in 100 mM potassium phosphate buffer, pH 7.4)

[2] = Solubility remark made during LCMS characterisation; format: physicochemical; settings: solvent for LCMS analysis

T1 sequence (Q91WN4 whole entry): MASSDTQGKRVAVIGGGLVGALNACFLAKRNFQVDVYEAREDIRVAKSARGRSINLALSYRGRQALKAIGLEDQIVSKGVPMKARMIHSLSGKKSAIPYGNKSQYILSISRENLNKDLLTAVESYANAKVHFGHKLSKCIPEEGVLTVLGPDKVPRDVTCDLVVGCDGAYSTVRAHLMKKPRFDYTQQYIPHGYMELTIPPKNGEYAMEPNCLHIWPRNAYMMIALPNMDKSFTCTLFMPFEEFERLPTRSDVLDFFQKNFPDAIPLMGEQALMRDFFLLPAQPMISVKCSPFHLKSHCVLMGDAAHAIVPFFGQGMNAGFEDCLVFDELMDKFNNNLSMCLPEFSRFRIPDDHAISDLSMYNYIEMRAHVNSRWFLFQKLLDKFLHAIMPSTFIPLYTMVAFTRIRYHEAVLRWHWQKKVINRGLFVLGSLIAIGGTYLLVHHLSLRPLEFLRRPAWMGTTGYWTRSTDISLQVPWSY

Structure (SMILES)	inhibition at 10 µM [1]	solubility (remark in words) [2]
Clc1cc(-c2cc(-c3ncco3)ncn2)ccc1OC1CC1 [2-(6-(3-chloro-4-cyclopropoxyphenyl)pyrimidin-4-yl)oxazole]	71%	–
O=c1[nH]c(-c2cc(-c3ccc(OC4CC4)c(Cl)c3)ncn2)no1 [3-[6-(3-chloro-4-cyclopropoxyphenyl)pyrimidin-4-yl]-4,5-dihydro-1,2,4-oxadiazol-5-one]	93%	–
O=c1[nH]nc(-c2cc(-c3ccc(Cl)c(Cl)c3)ncn2)[nH]1	–	very unsoluble compound- LCMS unobtainable ^1H NMR (250 MHz, DMSO- d6) ppm 9.27-9.32 (1 H, m), 8.39-8.47 (2 H, m), 8.17- 8.25 (1 H, m), 7.76-7.85 (1 H, m)
O=C(O)C1CCN(c2cc(-c3ccc(Cl)c(Cl)c3)ncn2)C1 (stereo not shown) [1-(6-(3,4-dichlorophenyl)pyrimidin-4-yl)pyrrolidine-3-carboxylic acid]	14%	–
Cn1[nH]cc(-c2cc(-c3ccc(Cl)c(Cl)c3)ncn2)c1=O	–	Compound is insufficiently soluble in any acceptable solvent in order to obtain a meaningful LCMS 1H NMR (500 MHz, DMSO-d6) d ppm 8.88 (1 H, s), 8.44 (1 H, br. s.), 8.26 (1 H, br. s.), 8.19 (1 H, d), 8.06 (1 H, br. s.), 7.85 (1 H, d), 3.45 (3 H, s)
O=C(O)C1CNCCN1c1cc(-c2ccc(Cl)c(Cl)c2)ncn1 (stereo not shown) [1-(6-(3,4-dichlorophenyl)pyrimidin-4-yl)piperazine-2-carboxylic acid]	30%	–

Second part, led by results:

inhibition at 10 µM [1]	Structure (SMILES)	solubility (remark in words) [2]
0%	FC(F)(F)c1c[nH]c(-c2cc(-c3ccc(Cl)c(Cl)c3)ncn2)n1 [4-(3,4-dichlorophenyl)-6-(4-(trifluoromethyl)-1H-imidazol-2-yl)pyrimidine]	–
71%	CC(C)Oc1ccc(-c2cc(C3CNC(C(=O)O)C3)ncn2)cc1Cl (stereo not shown) [4-(6-(3-chloro-4-isopropoxyphenyl)pyrimidin-4-yl)pyrrolidine-2-carboxylic acid]	–
0%	O=C(O)C1CN(c2cc(-c3ccc(Cl)c(Cl)c3)ncn2)CCN1 (stereo not shown) [4-(6-(3,4-dichlorophenyl)pyrimidin-4-yl)piperazine-2-carboxylic acid]	–
100%	Clc1cc(-c2cc(-c3nn[nH]n3)ncn2)ccc1OC1CC1 [4-(3-chloro-4-cyclopropoxyphenyl)-6-(1H-1,2,3,4-tetrazol-5-yl)pyrimidine]	–
7%	O=C(O)[C@H]1CCCN1c1cc(-c2ccc(Cl)c(Cl)c2)ncn1 [(R)-1-(6-(3,4-dichlorophenyl)pyrimidin-4-yl)pyrrolidine-2-carboxylic acid]	–
84%	O=C(O)C1CCC(c2cc(-c3ccc(OC4CC4)c(Cl)c3)ncn2)N1 (stereo not shown) [5-(6-(3-chloro-4-cyclopropoxyphenyl)pyrimidin-4-yl)pyrrolidine-2-carboxylic acid]	–
11%	O=C(O)[C@@H]1CCCN1c1cc(-c2ccc(Cl)c(Cl)c2)ncn1 [(S)-1-(6-(3,4-dichlorophenyl)pyrimidin-4-yl)pyrrolidine-2-carboxylic acid]	–

From patent publication US9649310B2, “Certain kynurenine-3-monooxygenase inhibitors, pharmaceutical compositions, and methods of use thereof” (CHDI Foundation, Inc., priority 2011, dated 2017)
